Laboratory results reported in patent US20080262008A1, “CRYSTALLINE FORMS AND POLYMORPHS OF N-(3-(DIMETHYLAMINO)PROPYL)-4-(4-(3-FLUORO-4-METHOXYPHENYL) PYRIMIDIN-2-YLAMINO) BENZENESULFONAMIDE AS SUCCINATE SALTS” (Wyeth, priority 2007, published 2008).

Key:
water solubility = assay type: physicochemical
[1] = solubility of the free base in solvents; assay type: physicochemical; conditions: free base form
Experimental: For example, acetone is needed to dissolve the free base at 50° C. […] HCl, phosphoric acid, tartaric acid, acetic acid, D-glucoronic acid and succinic acid were used to prepare pharmaceutically acceptable salts of compound 3. One crystalline form of compound 3 as a mono-succinate salt and five crystalline polymorphs of compound 3 as a hemi-succinate salt are provided in the Examples.

COc1ccc(-c2ccnc(Nc3ccc(S(=O)(=O)NCCCN(C)C)cc3)n2)cc1F [Compound 3, N-(3-(dimethylamino)propyl)-4-(4-(3-fluoro-4-methoxyphenyl)pyrimidin-2-ylamino)benzenesulfonamide]
Solubility in water (water solubility; free base, thermogravimeteric method): not detectable
solubility in THF, DMSO and DMF [1]: high
solubility in group 3 solvents, including water [1]: low

COc1ccc(-c2ccnc(Nc3ccc(S(=O)(=O)NCCCN(C)C)cc3)n2)cc1F.O=C(O)CCC(=O)O [Example 1, Mono-Succinate Salt of N-(3-(dimethylamino)propyl)-4-(4-(3-fluoro-4-methoxyphenyl)pyrimidin-2-ylamino)benzenesulfonamide]
water solubility (stated in words) (water solubility): water soluble
